Source: US20260077277A1, “DILUTABLE COMPOSITIONS AND PROCESSES FOR EXTRACTING AND REFINING POORLY WATER-SOLUBLE POLAR OILS FROM BIOMASS” (priority 2022, published 2026)

Columns and labels:
[1] = characteristic curvature (Cc), HLD framework; type: physicochemical; settings: obtained following procedure of Nouraei et al. (WO 2022/140843)
[2] = cited from earlier work

| SMILES | characteristic curvature (Cc) [1] | water solubility [2] [wt %] |
| --- | --- | --- |
| CCCCCc1cc(O)c2c(c1)OC(C)(C)[C@@H]1CCC(C)=C[C@@H]21 [THC, tetrahydrocannabinol] | +2.7 |  |
| C=CCc1ccc(O)c(OC)c1 [Eugenol, eugenol] |  | 0.14 |
| C=C(C)[C@@H]1CCC(C)=C[C@H]1c1c(O)cc(CCCCC)cc1O [CBD, cannabidiol] |  | 0.0013 |
